{"source": "patent US20030134779A1", "about": "“Method and composition for treatment and/or prevention of antibiotic-resistant microorganism infections” (priority 2002, published 2003)", "assay_type_in_all_cases": "cell-based, Staphylococcus aureus", "key": {"[1]": {"tested_on": "S. aureus ATCC 25923", "assay": "Checkerboard MICs and FIC index, penicillin with bovine LF", "description": "(§1) The MICs were determined by both macrodilution (1 ml/tube) and microdilution (100 μl/well) in sterile 96 well microtiter plates (International Nunc, Napierville, Ill.) techniques in three separate experiments according to the National Committee for Clinical Laboratory Standards (1992 and 1999) in three separate experiments. Serial 2-fold dilutions in MHB of LF, LFC, antibiotic or combination of LF or LFC with antibiotic were inoculated with an overnight culture at a final inoculum of 10^6 cfu/ml in MHB. Effect of LF combination with antibiotic on MICs were determined by adding 0.5 mg or 1 mg/ml of LF to each antibiotic dilution. The MIC was defined as the lowest concentration of drug (highest dilution) that caused a complete inhibition of bacterial growth after an incubation of 18 h. Effect of LF or LFC combination with antibiotic on MIC was also determined by checkerboard method using 96 well microtiter plates. Each antibiotic dilution (50 μl) was serially added to the wells in vertical rows starting from the top (lower dilution) to the bottom. Lactoferrin or LFC (50 μl) were added to 50 μl of each antibiotic dilution and serially diluted starting at the left (lower dilution) to the right. After inoculation, the final concentration of antibiotic from top to bottom were 32 to 8, 2 to 0.5, 0.5 to 0.125 μg/ml for penicillin, cefazolin and neomycin, respectively. From left to right, the concentration of LF or LFC were 25 to 0.0244 mg/ml or 256 to 0.5 μg/ml respectively in a final volume of 100 μl/well. The microplate's were incubated at 37° C. for 24 h. Bacterial growth was measured optically at 540 nm using Spectra Max 250 Microplate Spectrophotometer System of Molecular Device (Fisher Scientific, Ottawa, Canada). Tubes were incubated at 37° C. for 18 h and bacterial growth was measured by visual examination and optically at 540 nm using a spectrophotometer (Philips PU 8800; Pye Unican Ltd, Cambridge, UK). The fractional inhibitory concentration (FIC) was calculated as described by Eliopoulos and Moellering (1991).\n(§2) FIC antibiotic A=MICantibiotic A (in the presence of antibiotic B)/MICantibiotic A alone. FIC Index=FICantibiotic A+FICantibiotic B\n(§3) The effects of the antibiotics were considered to be synergistic or indifferent when FIC Index was<1 or>1, respectively."}, "[2]": {"tested_on": "S. aureus PC-1", "assay": "Checkerboard MICs and FIC index, penicillin with bovine LF", "details": "by combination with bovine LF", "description": "as §1, §2, §3"}, "[3]": {"tested_on": "S. aureus SHY97-3906", "assay": "Checkerboard MICs and FIC index, penicillin with bovine LF", "details": "for Decrease (of MIC of penicillin): by combination with bovine LF", "description": "as §1, §2, §3"}, "[4]": {"tested_on": "S. aureus SHY97-4320", "assay": "Checkerboard MICs and FIC index, penicillin with bovine LF", "details": "for Decrease (of MIC of penicillin): by combination with bovine LF", "description": "as §1, §2, §3"}, "[5]": {"tested_on": "S. aureus SHY97-4320", "assay": "SDS-PAGE protein profile of whole cells", "details": "compound alone: 8 μg/ml penicillin G or 1 mg/ml LF; 4-h of growth", "description": "Staphylococcus aureus SHY97-4320 cells growth in MHB containing test compounds were suspended in electrophoresis sample buffer containing 2% sodium dodecyl sulfate (SDS) and 5% 2-mercaptoethanol to a final concentration of 0.1 g per ml. The samples were heated to 100° C. for 5 min before being loaded for electrophoresis on a discontinuous 0.1% SDS-polyacrylamide gel (SDS PAGE) with 6% polyacrylamide stacking gel and 10 or 12% polyacrylamide running gel. Gels were run on a Mini-Protean® II apparatus (Bio Rad laboratories, Richmond, Calif.). Protein profiles were visualised by staining with coomassie brilliant blue R-250 or by silver staining."}}, "data": [{"compound": "CC1(C)S[C@@H]2[C@H](NC(=O)Cc3ccccc3)C(=O)N2[C@H]1C(=O)O", "note": "[penicillin G, Penicillin G]", "values": [{"measurement": "MIC", "setting": "[1]; Staphylococcus aureus, ATCC25923, in combination with bovine LF, checkerboard", "value": 0.0156, "unit": "µg/mL"}, {"measurement": "Decrease (of MIC of penicillin)", "setting": "[1]; by combination with bovine LF", "value": 2, "unit": "fold"}, {"measurement": "Decrease (of MIC of penicillin)", "setting": "[2]; listed as Penicillin", "value": "≧2 fold"}, {"measurement": "Decrease (of MIC of penicillin)", "setting": "[2]; listed as penicillin", "value": "≥ 2", "unit": "fold"}, {"measurement": "MIC", "setting": "[3]; Staphylococcus aureus, SHY973906, in combination with bovine LF, checkerboard", "value": 0.125, "unit": "µg/mL"}, {"measurement": "Decrease (of MIC of penicillin)", "setting": "[3]; listed as Penicillin", "value": 4, "unit": "fold"}, {"measurement": "Decrease (of MIC of penicillin)", "setting": "[3]; listed as penicillin", "value": "four fold"}, {"measurement": "MIC", "setting": "[4]; Staphylococcus aureus, SHY974320, in combination with bovine LF, checkerboard", "value": 16, "unit": "µg/mL"}, {"measurement": "Decrease (of MIC of penicillin)", "setting": "[4]; listed as Penicillin", "value": 4, "unit": "fold"}, {"measurement": "Decrease (of MIC of penicillin)", "setting": "[4]; listed as penicillin", "value": "four fold"}, {"measurement": "proteins of approximately 59, 42 and 27 kDa in protein profile", "setting": "[5]", "value": "can be seen"}]}]}
